Results published in US6844183B2, “Antibiotics RK-1061 and process for preparing the same” (Daiichi Pharmaceutical Co., Ltd., priority 1996, dated 2005).

Experiments:
Escherichia coli AB 1157 = test: paper disk antibacterial test, Escherichia coli AB 1157; assay type: cell-based; details: 20 μg/disc
Description: (§1) Methanol solution of each tested substance with specific concentration was sunk on a paper disk with diameter of 8 mm (Thick, Toyo-roshi) and dried, which was placed on a plate of each bacterium. After culture under the conditions suitable for each bacterium, the diameter of cell growth was measured, The results are shown in Table 4, 5 and 6.

[1] = test system: Staphylococcus aureus IFO 12732; test: paper disk antibacterial test, Staphylococcus aureus IFO 12732; assay type: cell-based; details: 20 μg/disc
Description: as §1

[2] = test system: Bacillus subtilis IFO 3513; test: paper disk antibacterial test, Bacillus subtilis IFO 3513; assay type: cell-based; details: 20 μg/disc; for the diameter of cell growth inhibition zone: ( ) represents partial inhibition
Description: as §1

[3] = test system: Mycobacterium phlei IFO 3158; test: paper disk antibacterial test, Mycobacterium phlei; assay type: cell-based; details: for The diameter of cell growth inhibition zone against M. Phlei: 2 μg/disc; for the diameter of cell growth inhibition zone: Mycobacterium phlei IFO 3158, 20 μg/disc
Description: as §1

[4] = test system: Candida albicans IFO 5994; test: paper disk test, Candida albicans IFO 5994; assay type: cell-based; details: 20 μg/disc
Description: as §1

peptidoglycan synthesis = test: inhibitory activity on peptidoglycan synthesis (crude enzyme, UDP-[3H]GlcNAc incorporation); assay type: biochemical, Escherichia coli; details: 0.1 μg/ml
Description: Crude enzyme and substrate UDP-MurNAc-pentapeptide were prepared from Escherichia coli and Bacillus subtilis respectively according to a reference (J. Biol. Chem., 243, 3180 (1968)). Enzymatic reaction was carried out by mixing 5 μl of 1M Tris-HCl (pH 7.5), 10 μl of 0.1M MgCl2, 5 μl of 2 mM UDP-MurNAc-pentapeptide, 5 μl of enzyme solution(15 mg/ml protein concentration), 5 μl of sample, 5 μl of UDP-[U-^3H]GlcNAc (10 μCi/ml, 25.8 Ci/mmol., Du'pont) and 15 μl of water at 37° C. for 60 minutes and […]. After ice-cooling, it was trapped on a GF/C glass filter(2.4 cm, Whatman). And after adding scintillator thereto, radiation thereof was counted. Inhibitory % was calculated by comparing the count of control.

BALB/3T3 cells = test: cytotoxicity test (MTT); assay type: cell-based; details: 3 days culture
Description: BALB/3T3 cells (100 μl) were inoculated into 10% FBS added DMEM medium (Gibco) in 96 well plate so as to be 1×10^5 cells/ml under 5% CO2 at 37° C., which was cultured overnight. The test substance dissolved in methanol was added thereto, which was cultured for more 3 days and further kept cultured for 4 hours after adding 10 μl of 2.5 mg/ml MTT reagent (Sigma). After removing supernatant, 100 μl of DMSO was added thereto and kept it overnight. The absorbance thereof at 540 nm was determined to detect viable cells.

Escherichia coli BE 1186 = test: paper disk antibacterial test, Escherichia coli BE 1186; assay type: cell-based; details: 20 μg/disc, ( ) represents partial inhibition
Description: as §1

Compound | the diameter of cell growth inhibition zone (Escherichia coli AB 1157) [mm] | the diameter of cell growth inhibition zone [1] [mm] | the diameter of cell growth inhibition zone [2] [mm] | The diameter of cell growth inhibition zone against M. Phlei ([3]; Table 5) [mm] | The diameter of cell growth inhibition zone against M. Phlei ([3]; Table 6) | the diameter of cell growth inhibition zone [3] [mm] | the diameter of cell growth inhibition zone [4] [mm] | Inhibitory activity on peptidoglycan synthesis (peptidoglycan synthesis) [%] | Cytotoxicity against BALB/3T3 (IC50) (BALB/3T3 cells) [µg/mL] | the diameter of cell growth inhibition zone (Escherichia coli BE 1186) [mm] | the diameter of cell growth inhibition zone, partial inhibition (value in brackets) [2]
CCCCCC=CCC=CCCCC(CC(=O)OC1CN(C)C(C(OC2OC(CN)C(O)C2OS(=O)(=O)O)C2OC(n3ccc(=O)[nH]c3=O)C(O)C2O)C(=O)N(C)C1C(=O)O)OC(=O)CC(C)CC(=O)O (centres unmarked) [Liposidomycins A, reference compound] | 0 | 0 | 0 | 0 | 0 mm | 18.9 | 0 | 95 | >25 | – | –
CCCCCC=CCC=CCCCC(CC(=O)OC1CN(C)C(C(OC2OC(CN)C(O)C2O)C2OC(n3ccc(=O)[nH]c3=O)C(O)C2O)C(=O)N(C)C1C(=O)O)OC(=O)CC(C)CC(=O)O (centres unmarked) [Liposidomycins A-(III)] | 0 | 0 | 21.0 | 11.62 | 14.3^− mm | 24.8 | 0 | 96 | >25 | 17.8 | –
CCCCCCCCCCCC(CC(=O)OC1CN(C)C(C(OC2OC(CN)C(O)C2OS(=O)(=O)O)C2OC(n3ccc(=O)[nH]c3=O)C(O)C2O)C(=O)N(C)C1C(=O)O)OC(=O)CC(C)CC(=O)O (centres unmarked) [Liposidomycins C, reference compound] | 0 | 0 | 0 | 0 | – | 22.1 | 0 | – | – | 0 | –
CCCCCCCCCCCC(CC(=O)OC1CN(C)C(C(OC2OC(CN)C(O)C2O)C2OC(n3ccc(=O)[nH]c3=O)C(O)C2O)C(=O)N(C)C1C(=O)O)OC(=O)CC(C)CC(=O)O (centres unmarked) [Liposidomycins C-(III)] | 0 | 0 | 17.8 | 16.21 | – | 30.3 | 0 | – | – | 14.3 | (23.7) mm
CCCCCCCCC=CCCCC(CC(=O)OC1CN(C)C(C(OC2OC(CN)C(O)C2O)C2OC(n3ccc(=O)[nH]c3=O)C(O)C2O)C(=O)N(C)C1C(=O)O)OC(=O)CC(C)CC(=O)O (centres unmarked) [Liposidomycins G-(III)] | – | – | – | 16.68 | – | – | – | – | – | – | –
CCCCCC=CCC=CCCCCCC(CC(=O)OC1CN(C)C(C(OC2OC(CN)C(O)C2O)C2OC(n3ccc(=O)[nH]c3=O)C(O)C2O)C(=O)N(C)C1C(=O)O)OC(=O)CC(C)CC(=O)O (centres unmarked) [Liposidomycins K-(III)] | 0 | 0 | 13.0 | 12.27 | – | 23.3 | 0 | – | – | 13.5 | –
CCCCCC=CCC=CCCCCCC(CC(=O)OC1CN(C)C(C(OC2OC(CN)C(O)C2OS(=O)(=O)O)C2OC(n3ccc(=O)[nH]c3=O)C(O)C2O)C(=O)N(C)C1C(=O)O)OC(=O)CC(C)CC(=O)O (centres unmarked) [Liposidomycins K] | 0 | 0 | – | 13.15 | – | 28.6 | 0 | – | – | – | –
CC(C)CCCCCCCCCCC(CC(=O)OC1CN(C)C(C(OC2OC(CN)C(O)C2OS(=O)(=O)O)C2OC(n3ccc(=O)[nH]c3=O)C(O)C2O)C(=O)N(C)C1C(=O)O)OC(=O)CC(C)CC(=O)O (centres unmarked) [Liposidomycins L] | – | – | – | 14.08 | – | – | – | – | – | – | –
CCCCCCCCCCCCCC(CC(=O)OC1CN(C)C(C(OC2OC(CN)C(O)C2O)C2OC(n3ccc(=O)[nH]c3=O)C(O)C2O)C(=O)N(C)C1C(=O)O)OC(=O)CC(C)CC(=O)O (centres unmarked) [Liposidomycins M-(III)] | 0 | 0 | 14.8 | 15.49 | – | 25.7 | 0 | – | – | – | –
CCCCCCCCCCCCCC(CC(=O)OC1CN(C)C(C(OC2OC(CN)C(O)C2OS(=O)(=O)O)C2OC(n3ccc(=O)[nH]c3=O)C(O)C2O)C(=O)N(C)C1C(=O)O)OC(=O)CC(C)CC(=O)O (centres unmarked) [Liposidomycins M] | 0 | 0 | 9.7 | 16.86 | – | 27.2 | 0 | – | – | 0 | (13.0) mm
CCCCCC=CCC=CCC(CC(=O)OC1CN(C)C(C(OC2OC(CN)C(O)C2O)C2OC(n3ccc(=O)[nH]c3=O)C(O)C2O)C(=O)N(C)C1C(=O)O)OC(=O)CC(C)CC(=O)O (centres unmarked) [Liposidomycins Y-(III)] | – | – | – | 0 | – | – | – | – | – | – | –
CCCCCCCCC=CCC(CC(=O)OC1CN(C)C(C(OC2OC(CN)C(O)C2O)C2OC(n3ccc(=O)[nH]c3=O)C(O)C2O)C(=O)N(C)C1C(=O)O)OC(=O)CC(C)CC(=O)O (centres unmarked) [Liposidomycins Z-(III)] | 0 | 0 | 22.2 | 13.74 | – | 26.3 | 0 | – | – | 18.8 | –
CCCCCCCCC=CCC(CC(=O)OC1CN(C)C(C(OC2OC(CN)C(O)C2OS(=O)(=O)O)C2OC(n3ccc(=O)[nH]c3=O)C(O)C2O)C(=O)N(C)C1C(=O)O)OC(=O)CC(C)CC(=O)O (centres unmarked) [Liposidomycins Z] | 0 | 0 | 0 | 0 | – | – | 0 | – | – | – | –
Tunicamycin [TM] | – | – | – | – | – | – | – | 10 | 0.05 | – | –
